For assay [1], the target named is Platelet-derived growth factor receptor alpha (Homo sapiens) (UniProt P16234). As to the kind of experiment: Inhibition of human PDGFR alpha catalytic domain expressed in baculovirus assessed as substrate phosphorylation using fluorescence-labelled peptides as substrate at 2 uM after 90 mins by microfluidic peptide phosphorylation assay.
Assay [2] concerns Fibroblast growth factor receptor 2 (Homo sapiens), P21802 [N549H]. In words: Inhibition of human FGFR2 N549H mutant catalytic domain expressed in baculovirus assessed as substrate phosphorylation using fluorescence-labelled peptides as substrate at 2 uM after 90 mins by microfluidic peptide phosphorylation assay.
Sequence of Fibroblast growth factor receptor 2 (Homo sapiens), P21802 [N549H] (P21802 whole entry N549H, the tested form may be a part): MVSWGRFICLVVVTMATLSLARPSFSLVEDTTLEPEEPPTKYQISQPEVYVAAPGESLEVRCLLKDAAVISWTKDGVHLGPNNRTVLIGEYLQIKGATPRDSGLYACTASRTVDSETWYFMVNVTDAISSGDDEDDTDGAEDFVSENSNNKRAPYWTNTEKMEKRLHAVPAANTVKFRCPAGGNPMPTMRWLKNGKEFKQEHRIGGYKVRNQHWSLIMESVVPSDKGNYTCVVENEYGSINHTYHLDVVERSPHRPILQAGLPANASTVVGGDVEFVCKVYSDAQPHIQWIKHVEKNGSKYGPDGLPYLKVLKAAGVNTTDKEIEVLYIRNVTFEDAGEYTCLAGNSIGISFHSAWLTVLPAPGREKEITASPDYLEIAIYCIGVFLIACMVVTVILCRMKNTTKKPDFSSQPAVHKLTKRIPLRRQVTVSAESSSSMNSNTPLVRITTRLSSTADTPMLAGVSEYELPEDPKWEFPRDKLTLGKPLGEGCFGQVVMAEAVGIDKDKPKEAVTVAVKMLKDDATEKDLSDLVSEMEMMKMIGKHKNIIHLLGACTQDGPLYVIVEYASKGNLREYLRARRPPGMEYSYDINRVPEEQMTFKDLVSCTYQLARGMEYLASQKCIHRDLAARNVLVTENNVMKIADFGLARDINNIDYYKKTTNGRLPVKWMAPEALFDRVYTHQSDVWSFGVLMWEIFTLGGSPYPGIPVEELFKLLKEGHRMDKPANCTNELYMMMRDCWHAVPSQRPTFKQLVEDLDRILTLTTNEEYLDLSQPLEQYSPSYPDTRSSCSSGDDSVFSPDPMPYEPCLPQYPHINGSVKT
Assay [3] deals with T1, MAP kinase-activated protein kinase 5 (Homo sapiens) (UniProt Q8IW41).
T1 sequence (whole entry): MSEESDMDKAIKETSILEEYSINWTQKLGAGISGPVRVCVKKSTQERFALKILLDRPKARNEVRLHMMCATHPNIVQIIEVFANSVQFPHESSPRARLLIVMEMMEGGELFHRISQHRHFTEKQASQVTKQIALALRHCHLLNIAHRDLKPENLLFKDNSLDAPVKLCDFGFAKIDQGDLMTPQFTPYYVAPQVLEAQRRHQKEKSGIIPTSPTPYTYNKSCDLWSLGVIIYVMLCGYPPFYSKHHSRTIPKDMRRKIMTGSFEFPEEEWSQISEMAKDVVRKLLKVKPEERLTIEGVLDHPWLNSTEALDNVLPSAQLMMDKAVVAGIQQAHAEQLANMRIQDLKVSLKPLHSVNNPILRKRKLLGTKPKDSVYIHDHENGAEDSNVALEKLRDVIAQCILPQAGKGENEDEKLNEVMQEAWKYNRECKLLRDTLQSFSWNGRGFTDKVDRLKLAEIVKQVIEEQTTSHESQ
As to the kind of experiment: Inhibition of human full length PRAK expressed in baculovirus assessed as substrate phosphorylation using fluorescence-labelled peptides as substrate at 0.1 uM after 90 mins by microfluidic peptide phosphorylation assay.

Assay [4] addresses MAP kinase-activated protein kinase 3 (Homo sapiens) (UniProt Q16644). As to conditions: 0.1 uM.
Description: Inhibition of human full length MAPKAPK3 expressed in Escherichia coli cell assessed as substrate phosphorylation using fluorescence-labelled peptides as substrate at 0.1 uM after 90 mins by microfluidic peptide phosphorylation assay
Assay [5] has as its target Mitogen-activated protein kinase 14 (Homo sapiens) (UniProt Q16539). As to the kind of experiment: Inhibition of human truncated p38 alpha expressed in Escherichia coli cell assessed as substrate phosphorylation using fluorescence-labelled peptides as substrate at 0.2 uM after 90 mins by microfluidic peptide phosphorylation assay.
The target of assay [6] is Tyrosine-protein kinase ABL1 (Homo sapiens) (UniProt P00519). As to the kind of experiment: Inhibition of human full-length ABL expressed in baculovirus assessed as substrate phosphorylation using fluorescence-labelled peptides as substrate at 0.2 uM after 90 mins by microfluidic peptide phosphorylation assay.
For assay [7], the system named is Tyrosine-protein kinase ABL1 (Homo sapiens), P00519 [H396P]. As to the kind of experiment: Inhibition of human truncated ABL H396P mutant expressed in baculovirus assessed as substrate phosphorylation using fluorescence-labelled peptides as substrate at 0.2 uM after 90 mins by microfluidic peptide phosphorylation assay.
The target in assay [8] is Serine/threonine-protein kinase pim-1 (Homo sapiens) (UniProt P11309). As to the kind of experiment: Inhibition of human full length PIM1 expressed in baculovirus assessed as substrate phosphorylation using fluorescence-labelled peptides as substrate at 0.06 uM after 90 mins by microfluidic peptide phosphorylation assay.
Sequence of Serine/threonine-protein kinase pim-1 (Homo sapiens) (P11309 whole entry, looked up): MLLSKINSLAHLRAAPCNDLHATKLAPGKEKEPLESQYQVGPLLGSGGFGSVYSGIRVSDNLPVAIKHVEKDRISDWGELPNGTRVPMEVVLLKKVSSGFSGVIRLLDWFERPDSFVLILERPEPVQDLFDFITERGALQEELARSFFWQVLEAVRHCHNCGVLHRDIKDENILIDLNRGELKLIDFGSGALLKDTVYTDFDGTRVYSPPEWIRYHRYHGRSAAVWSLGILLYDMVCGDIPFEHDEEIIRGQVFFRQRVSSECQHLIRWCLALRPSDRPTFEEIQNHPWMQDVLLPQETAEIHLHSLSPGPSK
Assay [9] addresses RAC-alpha serine/threonine-protein kinase (Homo sapiens) (UniProt P31749). The following applies: 0.06 uM.
Description: Inhibition of human AKT1 catalytic domain expressed in baculovirus assessed as substrate phosphorylation using fluorescence-labelled peptides as substrate at 0.06 uM after 90 mins by microfluidic peptide phosphorylation assay
Assay [10] concerns the target Epidermal growth factor receptor (Homo sapiens) (UniProt P00533). In words: Inhibition of human EGFR catalytic domain expressed in baculovirus assessed as substrate phosphorylation using fluorescence-labelled peptides as substrate at 0.06 uM after 90 mins by microfluidic peptide phosphorylation assay.
For assay [11], the target named is Vascular endothelial growth factor receptor 2 (Homo sapiens) (UniProt P35968). In words: Inhibition of human KDR cytoplasmic domain expressed in baculovirus assessed as substrate phosphorylation using fluorescence-labelled peptides as substrate at 9 uM after 90 mins by microfluidic peptide phosphorylation assay.
For assay [12], the target named is Ribosomal protein S6 kinase alpha-5 (Homo sapiens) (UniProt O75582). As to the kind of experiment: Inhibition of human full length MSK1 expressed in baculovirus assessed as substrate phosphorylation using fluorescence-labelled peptides as substrate at 95 uM after 90 mins by microfluidic peptide phosphorylation assay.
Sequence of Ribosomal protein S6 kinase alpha-5 (Homo sapiens) (O75582 whole entry, looked up): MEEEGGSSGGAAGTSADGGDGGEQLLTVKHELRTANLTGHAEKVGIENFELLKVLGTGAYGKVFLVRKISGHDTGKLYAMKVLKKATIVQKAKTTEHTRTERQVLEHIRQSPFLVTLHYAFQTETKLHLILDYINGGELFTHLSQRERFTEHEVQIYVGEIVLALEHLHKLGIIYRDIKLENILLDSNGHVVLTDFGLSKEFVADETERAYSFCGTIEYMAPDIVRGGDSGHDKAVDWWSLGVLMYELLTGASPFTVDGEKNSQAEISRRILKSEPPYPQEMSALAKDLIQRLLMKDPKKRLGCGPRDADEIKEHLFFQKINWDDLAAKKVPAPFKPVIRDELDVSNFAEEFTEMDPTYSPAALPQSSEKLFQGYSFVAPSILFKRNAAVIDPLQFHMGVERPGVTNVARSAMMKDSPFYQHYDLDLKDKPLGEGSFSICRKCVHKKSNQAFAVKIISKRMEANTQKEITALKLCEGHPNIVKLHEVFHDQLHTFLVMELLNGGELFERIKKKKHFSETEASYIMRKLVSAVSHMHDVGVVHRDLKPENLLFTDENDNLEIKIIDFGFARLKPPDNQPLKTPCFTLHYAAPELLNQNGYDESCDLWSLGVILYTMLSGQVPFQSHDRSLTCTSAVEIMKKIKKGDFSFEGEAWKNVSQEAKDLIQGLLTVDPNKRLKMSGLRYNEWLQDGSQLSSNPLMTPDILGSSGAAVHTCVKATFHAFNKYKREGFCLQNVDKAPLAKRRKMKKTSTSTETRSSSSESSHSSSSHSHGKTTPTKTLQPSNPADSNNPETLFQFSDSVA
The target in assay [13] is Mitogen-activated protein kinase 3 (Homo sapiens) (UniProt P27361). In words: Inhibition of human full length ERK1 expressed in Escherichia coli cell assessed as substrate phosphorylation using fluorescence-labelled peptides as substrate at 8 uM after 90 mins by microfluidic peptide phosphorylation assay.
For assay [14], the target named is T2, Calcium/calmodulin-dependent protein kinase type IV (Homo sapiens) (UniProt Q16566).
T2 sequence (whole entry): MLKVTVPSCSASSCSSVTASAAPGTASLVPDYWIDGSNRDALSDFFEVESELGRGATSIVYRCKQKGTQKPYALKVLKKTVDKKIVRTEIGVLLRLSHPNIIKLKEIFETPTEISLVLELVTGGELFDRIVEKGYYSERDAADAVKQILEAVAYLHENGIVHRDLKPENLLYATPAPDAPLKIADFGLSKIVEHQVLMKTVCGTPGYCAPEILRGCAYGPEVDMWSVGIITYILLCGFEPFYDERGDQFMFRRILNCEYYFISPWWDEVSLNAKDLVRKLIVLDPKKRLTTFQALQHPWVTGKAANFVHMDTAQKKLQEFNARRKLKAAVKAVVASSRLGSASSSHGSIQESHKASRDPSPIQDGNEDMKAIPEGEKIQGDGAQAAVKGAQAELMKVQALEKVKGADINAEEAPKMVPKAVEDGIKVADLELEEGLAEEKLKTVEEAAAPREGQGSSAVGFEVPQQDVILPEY
In words: Inhibition of human full length CAMK4 expressed in baculovirus assessed as substrate phosphorylation using fluorescence-labelled peptides as substrate at […] after 90 mins by microfluidic peptide phosphorylation assay.

Assay [15] deals with T3, Aurora kinase A (Homo sapiens) (UniProt O14965).
T3 sequence (whole entry): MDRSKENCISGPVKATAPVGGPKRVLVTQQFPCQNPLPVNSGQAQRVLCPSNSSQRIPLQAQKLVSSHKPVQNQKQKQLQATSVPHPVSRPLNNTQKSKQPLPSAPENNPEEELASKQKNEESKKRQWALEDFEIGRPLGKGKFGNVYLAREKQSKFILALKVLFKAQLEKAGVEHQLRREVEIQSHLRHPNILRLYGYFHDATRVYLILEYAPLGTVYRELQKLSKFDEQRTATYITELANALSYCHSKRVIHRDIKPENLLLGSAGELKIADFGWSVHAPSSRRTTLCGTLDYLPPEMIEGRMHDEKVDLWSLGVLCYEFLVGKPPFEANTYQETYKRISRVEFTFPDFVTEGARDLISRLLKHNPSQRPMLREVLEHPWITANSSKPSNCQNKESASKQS
As to the kind of experiment: Inhibition of human full length AurA expressed in baculovirus assessed as substrate phosphorylation using fluorescence-labelled peptides as substrate at 420 uM after 90 mins by microfluidic peptide phosphorylation assay.

The target of assay [16] is Cyclin-dependent kinase 2 (Homo sapiens) (UniProt P24941). In words: Inhibition of human full length CDK2 expressed in baculovirus assessed as substrate phosphorylation using fluorescence-labelled peptides as substrate at 1000 uM after 90 mins by microfluidic peptide phosphorylation assay.

Sequence of RAC-alpha serine/threonine-protein kinase (Homo sapiens) (P31749 whole entry, the tested form may be a part): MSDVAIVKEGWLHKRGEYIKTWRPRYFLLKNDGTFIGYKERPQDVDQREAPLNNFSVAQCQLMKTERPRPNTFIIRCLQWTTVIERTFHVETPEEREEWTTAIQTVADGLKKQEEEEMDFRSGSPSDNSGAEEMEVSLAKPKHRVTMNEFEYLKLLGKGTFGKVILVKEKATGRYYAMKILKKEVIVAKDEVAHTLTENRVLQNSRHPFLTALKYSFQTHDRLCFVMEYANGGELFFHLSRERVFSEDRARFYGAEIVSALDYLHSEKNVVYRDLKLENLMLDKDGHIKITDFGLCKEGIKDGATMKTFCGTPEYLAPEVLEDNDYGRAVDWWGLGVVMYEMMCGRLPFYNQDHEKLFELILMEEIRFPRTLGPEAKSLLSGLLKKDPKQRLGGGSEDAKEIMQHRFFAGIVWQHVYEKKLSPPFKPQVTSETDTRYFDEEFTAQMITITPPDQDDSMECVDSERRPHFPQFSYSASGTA
Sequence of Platelet-derived growth factor receptor alpha (Homo sapiens) (P16234 whole entry, the tested form may be a part): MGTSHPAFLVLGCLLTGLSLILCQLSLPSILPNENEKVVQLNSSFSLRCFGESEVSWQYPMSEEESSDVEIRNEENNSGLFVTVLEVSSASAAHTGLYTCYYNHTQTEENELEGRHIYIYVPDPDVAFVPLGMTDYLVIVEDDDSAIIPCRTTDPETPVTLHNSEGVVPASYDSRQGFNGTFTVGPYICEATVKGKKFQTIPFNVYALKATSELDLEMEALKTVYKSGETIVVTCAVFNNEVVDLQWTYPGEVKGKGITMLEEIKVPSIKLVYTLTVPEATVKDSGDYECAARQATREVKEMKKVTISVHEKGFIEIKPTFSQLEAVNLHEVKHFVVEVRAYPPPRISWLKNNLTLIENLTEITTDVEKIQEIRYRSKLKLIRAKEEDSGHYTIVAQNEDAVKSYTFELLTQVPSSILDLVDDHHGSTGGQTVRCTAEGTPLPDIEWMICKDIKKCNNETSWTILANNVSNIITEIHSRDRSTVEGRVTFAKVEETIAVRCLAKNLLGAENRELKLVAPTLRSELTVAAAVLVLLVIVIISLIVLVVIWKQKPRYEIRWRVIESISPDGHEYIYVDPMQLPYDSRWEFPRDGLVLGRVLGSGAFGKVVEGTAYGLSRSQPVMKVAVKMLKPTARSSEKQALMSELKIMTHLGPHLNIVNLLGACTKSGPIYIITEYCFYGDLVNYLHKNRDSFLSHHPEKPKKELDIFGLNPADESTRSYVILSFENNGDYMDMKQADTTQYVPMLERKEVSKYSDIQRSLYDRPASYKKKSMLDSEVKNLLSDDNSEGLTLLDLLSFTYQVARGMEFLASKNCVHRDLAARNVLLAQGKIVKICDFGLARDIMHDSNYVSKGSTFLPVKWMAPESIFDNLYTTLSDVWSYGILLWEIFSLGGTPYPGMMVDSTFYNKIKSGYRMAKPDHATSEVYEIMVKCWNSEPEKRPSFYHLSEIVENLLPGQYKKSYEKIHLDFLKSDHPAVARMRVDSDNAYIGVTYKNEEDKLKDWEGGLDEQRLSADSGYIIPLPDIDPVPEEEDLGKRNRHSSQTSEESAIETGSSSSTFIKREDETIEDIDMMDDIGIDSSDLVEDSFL
Sequence of Epidermal growth factor receptor (Homo sapiens) (P00533 whole entry, the tested form may be a part): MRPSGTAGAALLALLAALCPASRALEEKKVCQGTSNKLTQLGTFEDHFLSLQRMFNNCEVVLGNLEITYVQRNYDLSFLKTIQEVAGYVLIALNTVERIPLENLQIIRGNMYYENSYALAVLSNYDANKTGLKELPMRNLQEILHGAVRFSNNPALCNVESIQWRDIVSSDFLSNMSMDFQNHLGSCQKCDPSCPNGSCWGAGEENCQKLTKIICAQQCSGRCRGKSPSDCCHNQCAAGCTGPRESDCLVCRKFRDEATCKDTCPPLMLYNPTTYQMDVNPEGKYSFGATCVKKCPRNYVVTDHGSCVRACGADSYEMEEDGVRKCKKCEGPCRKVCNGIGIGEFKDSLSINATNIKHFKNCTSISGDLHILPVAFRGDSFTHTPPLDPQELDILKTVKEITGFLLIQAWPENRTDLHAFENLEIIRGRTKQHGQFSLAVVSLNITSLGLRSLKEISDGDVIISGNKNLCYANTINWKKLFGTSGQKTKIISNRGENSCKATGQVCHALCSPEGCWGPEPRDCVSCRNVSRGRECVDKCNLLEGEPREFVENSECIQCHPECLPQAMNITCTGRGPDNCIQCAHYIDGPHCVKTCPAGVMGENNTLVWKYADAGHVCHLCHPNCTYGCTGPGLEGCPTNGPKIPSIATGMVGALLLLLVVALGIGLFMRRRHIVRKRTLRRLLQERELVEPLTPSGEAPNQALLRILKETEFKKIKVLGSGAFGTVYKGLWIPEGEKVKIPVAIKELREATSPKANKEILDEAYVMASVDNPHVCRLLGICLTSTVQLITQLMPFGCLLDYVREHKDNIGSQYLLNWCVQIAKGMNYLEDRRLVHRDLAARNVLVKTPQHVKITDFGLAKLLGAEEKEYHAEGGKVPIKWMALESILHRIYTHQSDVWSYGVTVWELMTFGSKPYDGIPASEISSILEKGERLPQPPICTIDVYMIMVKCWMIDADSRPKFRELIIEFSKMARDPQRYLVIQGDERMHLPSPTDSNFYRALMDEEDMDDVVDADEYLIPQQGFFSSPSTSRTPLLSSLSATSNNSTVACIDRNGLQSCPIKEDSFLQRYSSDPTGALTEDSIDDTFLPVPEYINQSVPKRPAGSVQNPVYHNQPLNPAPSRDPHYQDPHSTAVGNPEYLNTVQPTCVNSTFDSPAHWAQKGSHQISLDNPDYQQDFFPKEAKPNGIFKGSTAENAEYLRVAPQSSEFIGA
Sequence of Mitogen-activated protein kinase 14 (Homo sapiens) (Q16539 whole entry, the tested form may be a part): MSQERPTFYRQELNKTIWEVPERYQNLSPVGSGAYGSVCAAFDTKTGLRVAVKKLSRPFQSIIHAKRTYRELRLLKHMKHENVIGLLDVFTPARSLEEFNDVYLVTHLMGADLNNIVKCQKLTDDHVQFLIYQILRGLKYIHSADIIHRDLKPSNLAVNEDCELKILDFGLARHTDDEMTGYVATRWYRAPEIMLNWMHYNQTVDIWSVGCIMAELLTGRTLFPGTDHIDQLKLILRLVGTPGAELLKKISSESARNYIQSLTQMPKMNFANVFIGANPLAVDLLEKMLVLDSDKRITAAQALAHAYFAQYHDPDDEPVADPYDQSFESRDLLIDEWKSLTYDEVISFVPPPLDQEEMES

On to `NC1CCN(c2ncnc3[nH]ccc23)CC1`, for which the inhibition was found to be 5% in assay [1] and 1% in assay [2].
In the case of `C[C@H](CN(C)C)Oc1nc(Nc2cc3cccc(Cl)c3cn2)cnc1C#N`, the figures for the inhibition in [3] and in [4] were 3.5% and 0%, respectively.
For `Clc1ccc(C2(c3ccc(-c4ncnc5[nH]cnc45)cc3)CCNCC2)cc1`, the inhibition stood at 5% in assay [5], 0% in assay [6] and 4.5% in assay [7].
As for `NC1(Cc2ccc(Cl)cc2)CCN(c2ncnc3[nH]ccc23)CC1`, the inhibition in assay [8] was determined as 0%; in [9] it was 34%; in assay [10] it was 0%.
Take `NCC1CN(c2ncnc3[nH]c4cnccc4c23)CCO1` (stereo unspecified): in assay [11], the inhibition was 63.5%.
Regarding `NCCc1ccc(-c2ncnc3[nH]cnc23)cc1`, the inhibition in [12] amounted to 76%.
For the molecule `NCC1CCN(c2ncnc3[nH]ccc23)CC1`, the inhibition in assay [13] was 8.5%.
`COC(=O)c1cnc(Nc2cnc(C#N)cn2)cc1NCC1CCNCC1`: in assay [14], the inhibition is 0.5%.
Take `c1nc(N2CCOCC2)c2nc[nH]c2n1`: the inhibition in assay [15] was 96%.
As for `c1cnc2[nH]ccc2c1`, the inhibition in assay [16] turned out to be 45.5%.

(Values after ChEMBL document CHEMBL3132769, “Fragment growing to retain or alter the selectivity of anchored kinase hinge-binding fragments” (Medchemcomm, 2014).)
